This note sets out measurements from ChEMBL document CHEMBL1764963, “In vitro and QSAR studies of cucurbitacins on HepG2 and HSC-T6 liver cell lines” (Bioorg Med Chem, 2011).

Assay [1] has as its system HepG2. Description: Hepatoprotective activity in human HepG2 cells assessed as protection against cell damage after 24 hrs by MTT assay. Format: functional. A general note: Formazan colour is commonly taken as a measure of viable cells.
For assay [2], the system named is HepG2. Description: Ratio of IC50 to EC50 for hepatoprotective activity in human HepG2 cells. Format: functional.
Assay [3] can be described thus: Cytotoxicity against rat HSC-T6 cell after 24 hrs by MTT assay. Format: cell-based. Particulars: Rattus norvegicus, HSC-T6, 24 h.
Assay [4] relates to HepG2. Description: Hepatoprotective activity in human HepG2 cells assessed as inhibition of CCl4-induced toxicity after 24 hrs by MTT assay. Also on record: Activity: scale not given: the % may be the effect or the level left. Format: functional, cell-based. As to conditions: for EC50: Homo sapiens, HepG2, 24 h.
The test system of assay [5] is HepG2. The experiment in a line: Cytotoxicity against human HepG2 cells after 24 hrs assessed as inhibition of cell viability by MTT assay. Format: cell-based. Particulars: Homo sapiens, HepG2, 24 h.
Assay [6] can be described thus: Antiproliferative activity against serum-stimulated rat HSC-T6 cells after 24 hrs by MTT assay. Format: functional, cell-based. Particulars: HSC-T6, 24 h.
Assay [7] can be described thus: Ratio of IC50 to EC50 for antiproliferative activity in rat HSC-T6 cells. In kind it is functional.

Each structure is given as a SMILES string.

Regarding `CC(C)(O)/C=C/C(=O)[C@](C)(O)[C@H]1[C@H](O)C[C@@]2(C)[C@@H]3CC=C4[C@@H](C=C(O)C(=O)C4(C)C)[C@]3(C)C(=O)C[C@]12C` [CUCURBITACIN I], the Activity in the assay on HepG2 [1] was found to be 40%. Further, the figures for the “Ratio IC50/EC50” value (in the assay on HepG2 [2]; in assay [7]) were 5 and 150, respectively. Moreover, the IC50 – broadly, the midpoint of a concentration-inhibition curve – in assay [3] amounted to 3.6 µM; with HepG2 [5] it was 15.8 µM. For the same compound, in the assay with HepG2 [4], the “inhibition (INH)” value is given as 74%. The results for the 50% effective concentration (EC50) (in the assay on HepG2 [4]; in assay [6]) were 3.16 µM and 0.02 µM, respectively.
Turning to `COC1=C[C@@H]2C(=CC[C@@H]3[C@@]2(C)C(=O)C[C@]2(C)[C@@H]([C@@](C)(O)C(=O)/C=C/C(C)(C)OC(C)=O)[C@H](O)C[C@@]32C)C(C)(C)C1=O`, in the assay on HepG2 [1], the Activity was found to be 40%. For the same compound, the “Ratio IC50/EC50” value is reported as 5 in the assay with HepG2 [2] and 35 in assay [7]. Further, the IC50 in assay [3] turned out to be 2.83 µM; in the assay on HepG2 [5], 12 µM. In addition, the 50% effective concentration (EC50) (in general, the concentration that produces a half-maximal response) came to 2.4 µM in the assay with HepG2 [4] and 0.08 µM in assay [6].
Take `CC(C)(O)/C=C/C(=O)[C@](C)(O)[C@H]1[C@H](O)C[C@@]2(C)[C@@H]3CC=C4[C@@H](CC(=O)[C@@H](O)C4(C)C)[C@]3(C)C(=O)C[C@]12C`: the Activity with HepG2 [1] is 40%. Besides, the “Ratio IC50/EC50” value came out at 6 in the assay with HepG2 [2] and 137 in assay [7]. For the same compound, the IC50 in assay [3] amounted to 8.7 µM; in the assay on HepG2 [5] it was 80.3 µM. In addition, in the assay on HepG2 [4], the “inhibition (INH)” value is recorded as 74%. For the same compound, the EC50 in the assay with HepG2 [4] is 13.8 µM; in assay [6] it was 0.06 µM.
With `CC(C)(O)/C=C/C(=O)[C@](C)(O)[C@H]1[C@H](O)C[C@@]2(C)[C@@H]3CC=C4[C@@H](C=C(O[C@@H]5O[C@H](CO)[C@@H](O)[C@H](O)[C@H]5O)C(=O)C4(C)C)[C@]3(C)C(=O)C[C@]12C`, the Activity in the assay on HepG2 [1] was determined as 40%. Besides, the “Ratio IC50/EC50” value with HepG2 [2] was 2; in assay [7], 62. In addition, the 50% inhibitory concentration (IC50) is 256 µM in assay [3] and 390 µM with HepG2 [5]. Further, the EC50 in the assay on HepG2 [4] was found to be 195 µM; in assay [6] it was 4.15 µM.
Regarding `CC(C)OC1=C[C@@H]2C(=CC[C@@H]3[C@@]2(C)C(=O)C[C@]2(C)[C@@H]([C@@](C)(O)C(=O)/C=C/C(C)(C)O)[C@H](O)C[C@@]32C)C(C)(C)C1=O`, the Activity with HepG2 [1] is on record as 40%; in the assay on HepG2 [4], less than 50%. Also, the 50% inhibitory concentration (IC50) worked out at 2.53 µM in assay [3] and 7.33 µM in the assay on HepG2 [5]. Further, a half-maximal response in assay [6] (EC50) required 0.25 µM. Also, the “Ratio IC50/EC50” value in assay [7] is on record as 10.
As to `CC(=O)OC(C)(C)/C=C/C(=O)[C@](C)(O)[C@H]1[C@H](O)C[C@@]2(C)[C@@H]3CC=C4[C@@H](C=C(OC(C)C)C(=O)C4(C)C)[C@]3(C)C(=O)C[C@]12C`, in the assay with HepG2 [1], the Activity is 40%. For the same compound, the figures for the IC50 (in assay [3]; in the assay on HepG2 [5]) were 2.5 µM and 4.27 µM, respectively. The EC50 in assay [6] was 0.32 µM. For the same compound, the “Ratio IC50/EC50” value in assay [7] is 8.
Turning to `COC1=C[C@@H]2C(=CC[C@@H]3[C@@]2(C)C(=O)C[C@]2(C)[C@@H]([C@@](C)(O)C(=O)CCC(C)(C)O)[C@H](O)C[C@@]32C)C(C)(C)C1=O`, the Activity in the assay on HepG2 [1] is on record as 40%. For the same compound, the IC50 in assay [3] worked out at 6.7 µM. Moreover, in the assay with HepG2 [4], the “inhibition (INH)” value is 74% and the EC50 was determined as 5 µM. In assay [6], this compound gave an EC50 of 0.18 µM.
With `CCOC1=C[C@@H]2C(=CC[C@@H]3[C@@]2(C)C(=O)C[C@]2(C)[C@@H]([C@@](C)(O)C(=O)/C=C/C(C)(C)O)[C@H](O)C[C@@]32C)C(C)(C)C1=O`, the values for the Activity with HepG2 [1] and with HepG2 [4] were 40% and less than 50%, respectively. The IC50 in assay [3] was 3.53 µM. Further, in assay [6], the EC50 was found to be 0.34 µM.
Take `CCCOC1=C[C@@H]2C(=CC[C@@H]3[C@@]2(C)C(=O)C[C@]2(C)[C@@H]([C@@](C)(O)C(=O)/C=C/C(C)(C)O)[C@H](O)C[C@@]32C)C(C)(C)C1=O`: the results for the Activity with HepG2 [1] and with HepG2 [4] were 40% and less than 50%, respectively. The IC50 in assay [3] is 2.47 µM; in the assay on HepG2 [5], 5 µM. Besides, the EC50 in assay [6] was determined as 0.33 µM. The “Ratio IC50/EC50” value in assay [7] is 8.
